From patent publication US6924309B2 (Children, Youth and Women's Health Service Incorporated, priority 1999, dated 2005)
≈ marks a conversion by molar mass, not a printed value. Read-outs that look alike come from different tables or passages of the source.

Experiments:
[1] = system: Plasmodium falciparum isolates 3D7, FC27, K+; experiment: Radiometric (3H-hypoxanthine) assay on asexual blood stages of P. falciparum; format: cell-based; conditions: for EC50: Plasmodium falciparum, read-out: EC50 against P. falciparum
Protocol: Using the radiometric assay^(36), the effects of the Lx compounds were examined for antimalarial activity. The Plasmodium falciparum isolates used were 3D7, FC27, K^1 and K^+. These were maintained in human blood group O^+ erythrocytes essentially as described previously using RPM-1640 (HEPES modification) supplemented with 0.25% D-glucose, 0.2% Tess buffer (Sigma Chemical Co, Lt Louis, Mo.) and 10% heat inactivated (56° C., 20 min) human blood group AB serum. Cultures were maintained in tissue culture flasks (Corning, N.Y.) at 37° C. under an atmosphere of 1% 2, 5% CO2 in N2. P. falciparum cultures containing approximately 3.0:% parasitaemia were adjusted to 1×10^8 erythrocytes/ml. To 50 μl of the parasite-erythrocyte culture (5×10^6 erythrocytes) in wells of 96-well microdilution plates wvas added 50 μl of the designated concentration of fatty acid or equivalent amounts of solutions or media. The treated cultures were incubated at 37° C. for 4 h and then pulsed with 50 μl (2.5 μCi) of ^3H-hypoxanthine. After a further 18 h incubation the parasites-erythrocytes were harvested onto glass fibre filter papers using a cell harvester. The amount of radioactivity incorporated was measured in a β-counter. The results have been expressed as % inhibition of parasite growth i.e. the dpm in the fatty acid diluent−dpm in the fatty acid treated cultures/dpm in diluent×100.

[2] = Thin film autoxidation of arachidonic acid with compounds 16-19 (HPLC)
Description: Subsequently, the autoxidation of compounds 16-19 and their effects on the autoxidation of arachidonic acid were investigated. In these experiments, a thin film assay method was employed. For each reaction, arachidonic acid was mixed with one of the synthetic compounds 16, 17, 18 or 19 at 1:1 ratio with or without the radical initiator, azobisisobutyronitrile (AIBN). A reverse phase HPLC method was used to simultaneously measure the relative amounts of arachidonic acid and the synthetic compounds 16, 17, 18 or 19 recovered following 60 or 70 hours or 7 days of thin film autoxidation.

[3] = Petri-dish thin film autoxidation of arachidonic acid with thia fatty acids and sulfides (HPLC)
Protocol: A stock solution in dichioromethane (2 ml) containing arachidonic acid 1 (18 mg) and 3-[(3Z,6Z)-nona-3,6dienylthio]propionic acid 106 (18 mg) was prepared with lauric acid (18 mg) as an internal standard. Samples of the stock solution (100 μl) were added to glass Petri-dishes followed by ethanol (400 μl). After evaporation of the solvent, a well-distributed thin film was formed on each Petri-dish. The Petri-dishes were placed in a desiccator, which was then evacuated, filled with oxygen and stored in the darkness. Dishes were removed from the desiccator after 1, 2, 3, 5 and 7 days. The mixture on each dish was redissolved in diethyl ether and transferred to a 2 ml vial. After evaporation of the solvent, the residue was dissolved in the HPLC mobile phase (100 μl) and 10% of the solution was analysed by HPLC using a reverse phase column (octadecylsilane) (4.6 mm×250 mm, 3 μm) and a refractive index detector.
Autoxidation of arachidonic acid was conducted in the presence of compound 19 and lauric acid. Stock solutions of arachidonic acid, compound 19 and lauric acid in dichloromethane with equal concentrations were added to a 25 ml round-bottomed flask, and the solvent was evaporated to leave a thin film on the internal surface of the flask. The flask was then filled with oxygen and kept in the dark. The percentages of arachidonic acid and compound 19 remaining after 7 days were measured by HPLC. The same assay was carried out simultaneously with several flasks but the results were not reproducible. The variation was attributed to differences in oxygen concentration and the surface area of the thin films formed in the flasks. Therefore, in order to establish a reproducible assay for the analysis of the autoxidation of arachidonic acid, Petri-dishes with uniform size (80 mm in diameter) were used instead of flasks for thin film formation and the oxidation was carried out by placing the Petri-dishes in a dessicator filled with oxygen. To assess this method, thin firms of arachidonic acid with lauric acid as a standard were prepared on six Petri-dishes using identical treatment, and then subjected to oxidation in the same dessicator filled with oxygen. After 24 h, the percentage of arachidonic acid recovered following autoxidation in each Petri-dish was determined by HPLC. […] The advantage of using a Petri-dish over a flask is that the thin films on each Petri-dish are spread over the same area, and each Petri-dish is exposed to oxygen to the same extent.
Using the Petri-dish assay method, the effects of the thia PUFAs and sulfides 106 and 108-111, along with compounds 18, 19 and 3-[(Z,Z,Z)-(octadeca-9,12,15-trienylthio)] propionic acid 112 which were available in the laboratory, on the autoxidation of arachidonic acid, were examined. In addition, the stability of these compounds in the presence of arachidonic acid was also investigated. Arachidonic acid and lauric acid as a standard were mixed with each sulfur compound at different ratios and the mixtures were subjected to thin film autoxidation. The mixtures were analysed by HPLC after 1,2,3,5 and 7 days.

15-LO = biological target: T1, 15-LO (Glycine max, UniProt P08170); experiment: Effect on 15-LO catalysed oxidation of arachidonic acid; format: biochemical, soybean
T1 construct: purchased Sigma Chemical Company
T1 sequence (P08170 1-839): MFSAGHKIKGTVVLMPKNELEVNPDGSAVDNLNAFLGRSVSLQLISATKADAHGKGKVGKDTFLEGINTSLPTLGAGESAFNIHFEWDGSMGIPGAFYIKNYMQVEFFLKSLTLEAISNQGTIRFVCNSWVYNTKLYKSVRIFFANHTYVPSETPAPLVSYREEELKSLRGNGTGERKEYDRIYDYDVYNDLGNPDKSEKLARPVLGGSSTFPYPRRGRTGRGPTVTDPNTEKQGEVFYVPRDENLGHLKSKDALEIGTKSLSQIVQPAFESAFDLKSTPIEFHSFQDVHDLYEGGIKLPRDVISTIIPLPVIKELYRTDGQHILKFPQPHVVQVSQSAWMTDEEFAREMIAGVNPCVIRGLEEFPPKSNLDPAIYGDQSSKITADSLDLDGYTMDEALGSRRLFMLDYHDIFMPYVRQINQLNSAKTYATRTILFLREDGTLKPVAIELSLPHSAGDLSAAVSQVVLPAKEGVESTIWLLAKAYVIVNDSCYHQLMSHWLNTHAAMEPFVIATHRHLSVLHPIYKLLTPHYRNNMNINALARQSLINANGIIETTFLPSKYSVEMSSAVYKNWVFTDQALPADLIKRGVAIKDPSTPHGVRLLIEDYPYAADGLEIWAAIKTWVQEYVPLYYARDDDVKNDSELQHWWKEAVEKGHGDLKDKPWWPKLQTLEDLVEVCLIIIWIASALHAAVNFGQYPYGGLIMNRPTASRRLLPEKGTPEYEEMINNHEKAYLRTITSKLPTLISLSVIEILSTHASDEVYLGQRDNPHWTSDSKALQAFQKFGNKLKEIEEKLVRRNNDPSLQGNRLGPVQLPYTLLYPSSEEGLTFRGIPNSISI

[4] = ratio 2:1, with AIBN at 10% the amount of arachidonic acid, 1 day
[5] = ratio 2:1, with AIBN at 10% the amount of arachidonic acid, 2 days
[6] = ratio 2:1, with AIBN at 10% the amount of arachidonic acid, 3 days
[7] = ratio 2:1, with AIBN at 10% the amount of arachidonic acid, 5 days
[8] = ratio 2:1, with AIBN at 10% the amount of arachidonic acid, 7 days
[9] = ratio arachidonic acid:compound 1:1, 1 day
[10] = ratio arachidonic acid:compound 1:1, 2 days
[11] = ratio arachidonic acid:compound 1:1, 3 days
[12] = ratio arachidonic acid:compound 1:1, 5 days
[13] = ratio arachidonic acid:compound 1:1, 7 days
[14] = ratio arachidonic acid:compound 2:1, 1 day
[15] = ratio arachidonic acid:compound 2:1, 2 days
[16] = ratio arachidonic acid:compound 2:1, 3 days
[17] = ratio arachidonic acid:compound 2:1, 5 days
[18] = ratio arachidonic acid:compound 2:1, 7 days
[19] = ratio arachidonic acid:compound 10:1, 1 day
[20] = ratio arachidonic acid:compound 10:1, 2 days
[21] = ratio arachidonic acid:compound 10:1, 3 days

SMILES: CC/C=C\C/C=C\C/C=C\C/C=C\C/C=C\C/C=C\CCC(=O)O [22:6n-3, docosahexaenoic acid, reference compound]
- EC50 ([1]; 3D7, isolate FC27): 12 µg/mL (≈ 36.5 µM)
- EC50 ([1]; 3D7, isolate K+): 4 µg/mL (≈ 12.2 µM)
- Reduction of antimalarial activity by human serum ([1]; compound 20 μg/ml, presence of human serum): 85%

SMILES: CCCCC/C=C\C/C=C\C/C=C\C/C=C\CCCCSCCC(=O)O [Compound 19]
- Percentage of arachidonic acid recovered in the presence of the compound ([2]; ratio 1:1, 10% AIBN 60 h): 100%
- Percentage of compound recovered (with arachidonic acid) ([2]; ratio 1:1, 10% AIBN 60 h): 96%
- Percentage of arachidonic acid recovered in the presence of the compound ([2]; ratio 1:1, no additive 70 h): 101%
- Percentage of compound recovered (with arachidonic acid) ([2]; ratio 1:1, no additive 70 h): 98%
- Percentage of arachidonic acid recovered in the presence of the compound ([2]; ratio 1:1, no additive 7 day): 102%
- Percentage of compound recovered (with arachidonic acid) ([2]; ratio 1:1, no additive 7 day): 96%
- Autoxidation of arachidonic acid in the presence of the compound (in words) ([2]; ratio 1:1, with or without AIBN): completely inhibited
- Antioxidant effect on autoxidation of arachidonic acid (in words) [3]: effective antioxidants
- Antioxidant effect on autoxidation of arachidonic acid (in words) ([3]; 1:1 ratio with arachidonic acid): almost complete prevention of autoxidation
- Antioxidant effect on autoxidation of arachidonic acid (in words) ([3]; compound at one-tenth that of arachidonic acid): very slow over the first 3 days
- Arachidonic acid (%) recovered following autoxidation in the presence of the compound [3, 4]: 100%
- Compound (%) recovered following autoxidation with arachidonic acid [3, 4]: 98%
- Arachidonic acid (%) recovered following autoxidation in the presence of the compound [3, 5]: 98%
- Compound (%) recovered following autoxidation with arachidonic acid [3, 5]: 95%
- Arachidonic acid (%) recovered following autoxidation in the presence of the compound [3, 6]: 94%
- Compound (%) recovered following autoxidation with arachidonic acid [3, 6]: 80%
- Arachidonic acid (%) recovered following autoxidation in the presence of the compound [3, 7]: 49%
- Compound (%) recovered following autoxidation with arachidonic acid [3, 7]: 47%
- Arachidonic acid (%) recovered following autoxidation in the presence of the compound [3, 8]: 35%
- Compound (%) recovered following autoxidation with arachidonic acid [3, 8]: 43%
- Arachidonic acid (%) recovered following autoxidation in the presence of the compound [3, 9]: 99%
- Compound (%) recovered following autoxidation with arachidonic acid [3, 9]: 99%
- Arachidonic acid (%) recovered following autoxidation in the presence of the compound [3, 10]: 100%
- Compound (%) recovered following autoxidation with arachidonic acid [3, 10]: 100%
- Arachidonic acid (%) recovered following autoxidation in the presence of the compound [3, 11]: 99%
- Compound (%) recovered following autoxidation with arachidonic acid [3, 11]: 99%
- Arachidonic acid (%) recovered following autoxidation in the presence of the compound [3, 12]: 99%
- Compound (%) recovered following autoxidation with arachidonic acid [3, 12]: 98%
- Arachidonic acid (%) recovered following autoxidation in the presence of the compound [3, 13]: 98%
- Compound (%) recovered following autoxidation with arachidonic acid [3, 13]: 99%
- Arachidonic acid (%) recovered following autoxidation in the presence of the compound [3, 14]: 100%
- Compound (%) recovered following autoxidation with arachidonic acid [3, 14]: 98%
- Arachidonic acid (%) recovered following autoxidation in the presence of the compound [3, 15]: 99%
- Compound (%) recovered following autoxidation with arachidonic acid [3, 15]: 96%
- Arachidonic acid (%) recovered following autoxidation in the presence of the compound [3, 16]: 100%
- Compound (%) recovered following autoxidation with arachidonic acid [3, 16]: 96%
- Arachidonic acid (%) recovered following autoxidation in the presence of the compound [3, 17]: 98%
- Compound (%) recovered following autoxidation with arachidonic acid [3, 17]: 94%
- Arachidonic acid (%) recovered following autoxidation in the presence of the compound [3, 18]: 97%
- Compound (%) recovered following autoxidation with arachidonic acid [3, 18]: 90%
- Arachidonic acid (%) recovered following autoxidation in the presence of the compound [3, 19]: 99%
- Compound (%) recovered following autoxidation with arachidonic acid [3, 19]: 95%
- Arachidonic acid (%) recovered following autoxidation in the presence of the compound [3, 20]: 99%
- Compound (%) recovered following autoxidation with arachidonic acid [3, 20]: 87%
- Arachidonic acid (%) recovered following autoxidation in the presence of the compound [3, 21]: 87%
- Compound (%) recovered following autoxidation with arachidonic acid [3, 21]: 38%
- Arachidonic acid (%) recovered following autoxidation in the presence of the compound ([3]; ratio arachidonic acid:compound 10:1, 5 days): 42%
- Arachidonic acid (%) recovered following autoxidation in the presence of the compound ([3]; ratio arachidonic acid:compound 10:1, 7 days): 17%

SMILES: CC/C=C\C/C=C\C/C=C\C/C=C\C/C=C\C/C=C\CCC[N+](=O)[O-] [Lx5, (a11-z)-1-Nitro-4,7,10,13,16,19-docosahexaene]
- Effect on 15-LO catalysed oxidation of AA (15-LO): Nil
